Experimental data: patent US11826333B2, “Bactericidal debridement compositions for surgical site infections and chronic wound healing” (DePuy Synthes Products, Inc., priority 2020, dated 2023)
In brackets after ≈: the same amount, converted by molar mass.

Tests used:
planktonic S. aureus = experiment: CDA effect on planktonic bacteria (visual MIC test and follow-up plating); format: cell-based
Description: As an additional test, several different CDA concentrations (800 ppm, 400 ppm, 200 ppm, 100 ppm, 50 ppm, 25 ppm, 12.5 ppm, and 6.25 ppm) were placed in vials including planktonic S. aureus. The vials can be seen in FIG. 3A. Two controls are on the right and unlabeled (bacteria/no fatty acid and no fatty acid/no bacteria, respectively). […] This test was qualitative and was based on whether there was observable bacteria in the test vials. In FIG. 3A, it can be seen that only the test vial containing 800 ppm CDA contains clear fluid, while the other tubes are all cloudy indicating active presence of bacteria.
Thus, even at an MIC of 800 ppm, CDA was not shown to be bactericidal but rather bacteriostatic with respect to planktonic bacteria.

[1] = system: mature biofilms of S. aureus (ATCC 25923); experiment: CDA dispersant effect on mature biofilms; format: cell-based; settings: CDA ~0.05 ppm, 310 nM
Method: (§1) In the following examples, unless otherwise noted, testing was conducted on mature biofilms of S. aureus (ATCC 25923) that were grown for 48 hours. An exemplary preparation of the biofilm is as follows: • Prepare an overnight bacterial inoculum of S. aureus at a concentration of 10^9 CFU/mL in 20 mL in commercial Tryptic Soy Broth (TSB) by incubating at 37° C. shaker at 250 rpm; • Take an OD600 reading of a diluted stock of overnight culture to determine stock concentration with the absorbance method; • Adjust the concentration of bacteria to 10^5 CFU/mL using 0.3% (w/v) TSB forcibly aspirating up and down to break up clumps of colonies with a serological pipette from the stock concentration; • Plate the following dilutions in triplicates on TSA-L plates to determine the initial stock concentration of cells: 10^2 CFU/mL; • Add 7 mL of inoculum into each 15 ml tube containing K-wire using a serological pipette, making sure to again forcibly aspirate up and down prior to addition; • Place the tubes on the revolver at 30° C.; • After 8 hours, unscrew the caps and transfer the caps with sutures to a new tube with 7 mL of 0.3% TSB and incubate in the shaker-incubator for an additional 44 hours to grow the biofilm at 40 RPM growing; • During this time, change the media 2 times per day by unscrewing the cap and transferring to a new tube with 7 mL TSB.

[2] = system: S. aureus (ATCC 25923) biofilms grown for 48 hrs; experiment: CDA dose response on mature biofilms (Example 1); format: cell-based; settings: CDA at 200 ppm or greater in 5% DMSO; 24 hours exposure; 48 h biofilm
Method: as §1, with “TSB. […]” for “TSB.”

[3] = system: S. aureus (ATC 25923) biofilm grown for 48 hours on K-wires; experiment: 1 hour CDA/cefazolin exposure of debrided or full biofilm on K-wires (Example 3); format: cell-based; settings: debrided biofilm; for Avg. Log CFU, K-Wire Testing / Avg. Log CFU, Well Testing: 21° C.; for Reduction (log CFU), K-Wire Testing / Reduction (log CFU), Well Testing: vs debrided biofilm control
Method: The goal of this study was to determine whether the combination of CDA and Cefazolin can act quickly on a debrided contaminated wound site with an adjuvant killing effect of CDA and a therapeutic drug concentration. The biofilm was grown at 30° C. and the same 0.3% (w/v) media used in previous studies was used in this study. The biofilm was grown for 48 hours, then underwent a mechanical “debridement” process. This debridement was done to simulate the debridement of an infected wound site. After the physical removal of visual biofilm, the K-wires were exposed to 400 ppm CDA, 10 ppm cefazolin, or a combination of both, for one hour (in contrast to the previous studies where exposure was for 24 hrs). Separately, a test was conducted on an untreated biofilm (i.e., not debrided) using a higher concentration of CDA, approximately 800 ppm. This concentration of CDA was determined to be the MIC value for ATC 25923 planktonic cells as noted above in the previous example.
The contents of the wells and bacteria on the K-wires were diluted and plated to determine CFU/mL. Briefly, the K-wires were secured to tube caps and placed in tubes incubated with an initial inoculum concentration (10^5 CFU/mL) and grown for 24-48 hours. Media was changed roughly every 8 hours. After growth, the biofilms were exposed to a combination of CDA and cefazolin for 60 minutes.
After exposure time was completed, both the well samples and the debrided K-wires were treated, and the remaining bacteria cells were plated and counted. For the media in the wells, samples were centrifuged for 10 minutes at 3000 rpm and the supernatant was removed. The cells were resuspended in 10 mL 1×PBS buffer. This washing step was repeated for a second time and the cells resuspended again in a final volume of 1.5 mL neutralizing buffer, diluted and plated on Tryptic Soy Agar with Lectin (TSA-L) agar plates. For the K-wires, the caps securing the K-wires in the tubes were removed and transferred to tubes with 10 mL 1×PBS and the tubes were inverted. The cap with the K-wires were transferred again to another tube with PBS and the step was repeated. After washing the K-wires 2×, they were transferred to tubes with neutralizing buffer and vortexed followed by ultra-sonication for 10 minutes. The cells were then diluted and plated on TAS-L agar plates.
Prepare an overnight bacterial inoculum of S. aureus at a concentration of 10^9 CFU/mL in 20 mL in commercial TSB by incubating at 37° C. shaker at 250 rpm.
Adjust the concentration of bacteria to 10^5 CFU/mL using 0.3% (w/v) TSB making sure to forcibly aspirate up and down to break up clumps of colonies with a serological pipette from the stock concentration.
Add 7 mL of inoculum into each 15 ml tube containing K-wire using a serological pipette, making sure to again forcibly aspirate up and down prior to addition.
After 8 hours, unscrew the caps and transfer the caps with sutures to a new tube with 7 mL of 0.3% TSB and incubate in the shaker-incubator for an additional 44 hours to grow the biofilm at 40 RPM growing.
During this time, change the media 2× per day by unscrewing the cap and transferring to a new tube with 7 mL TSB. After 48 hours of growth, proceed with debridement of the biofilm and exposure.
Transfer the K-wires in new tubes containing 10 mL of 1×PBS, invert it two times and repeat the same step with one more PBS wash by inverting 2 times for a total of 2 washes.
Transfer caps with debrided biofilm to a new tube containing 10 mL of 0.1% TSB with DMSO only.
Transfer caps with debrided biofilm to a new tube containing 10 mL of 0.1% TSB+400 ppm concentration of CDA+5% DMSO.
Transfer caps with debrided biofilm to a new tube containing 10 mL of 0.1% TSB+10 ppm concentration of cefazolin.
Transfer caps with debrided biofilm to a new tube containing 10 mL of 0.1% TSB+10 ppm concentration of cefazolin+400 ppm CDA+5% DMSO. […]

MRSA = settings: literature, Jennings et al. 2012; cited from earlier work
biofilms = settings: literature, Davies & Marques 2009; cited from earlier work
[4] = system: P. aeruginosa, E. coli, K pneumoniae, Proteus mirabilis, Streptococcus pyogenes, B. subtilis, S. aureus, and the yeast C. albicans; settings: literature, Rabin et al. 2015; many species of bacteria and across kingdom; cited from earlier work
[5] = system: mature biofilms of S. aureus (ATCC 25923) grown for 48 hours on K-wires; experiment: CDA + antibiotics on K-wires having mature biofilms (Example 2); format: cell-based; settings: 400 ppm CDA adjuvant in combination with the named antibiotic; 48 h biofilm
Method: as §1
New K-wires were roughened with #600 sandpaper (˜10× along the length) followed by rinsing with deionized water. The rinsed K-wires were then completely immersed in a 10% citric acid (w/v) bath at ˜49° C. for 20 minutes to passivate the surface of the stainless steel to prevent subsequent corrosion. After removal from the bath, the K-wires were then rinsed with deionized water. The K-wires were then washed and sterilized by autoclaving.
K-wires were secured to tube caps and placed in tubes incubated with an initial inoculum concentration (10^5 CFU/mL) and grown for 24-48 hours. Media was changed roughly every 8 hours. After growth, the inoculated K-wires were ready for testing.
After exposure time is completed, both the well samples and the debrided K-wires are treated, and remaining bacteria cells are plated and counted. For the media in the wells, samples are centrifuged for 10 minutes at 3000 rpm and the supernatant is removed. The cells are resuspended in 10 mL 1×PBS buffer. This washing step is repeated for a 2nd time and the cells resuspended again in a final volume of 1.5 mL neutralizing buffer, diluted and plated on Tryptic Soy Agar with Lectin (TSA-L) agar plates. For the K-wires, the caps securing the K-wires in the tubes are removed and transferred to tubes with 10 mL 1×PBS and the tubes are inverted. The caps with the K-wires are transferred again to another tube with PBS and the step repeated. After washing the K-wires 2 times, they are transferred to tubes with neutralizing buffer and vortexed followed by ultra-sonication for 10 minutes. The cells are then diluted and plated on TSA-L agar plates.
Following growth, biofilms were washed and treated with the fatty acid and/or antimicrobials to determine dose-response and adjuvant effects. After this time, the wells of the samples were diluted and plated to determine dispersion levels compared to controls. The K-wires were washed, sonicated to remove any residual cells, and the samples were plated to determine CFU/mL.

Staphylococcus aureus = settings: literature, Stenz et al.; by inhibiting bacterial adhesion; cited from earlier work
Xanthomonas campestris = settings: literature, Dow et al. 2003; cited from earlier work
[6] = system: mature biofilms of S. aureus (ATCC 25923); experiment: Systemic gentamicin testing on mature biofilms; format: cell-based; settings: approximately 10 ppm (10 mcg/ml) gentamicin; data not shown
Method: as §1, with “TSB. […]” for “TSB.”

For `CCCCCCC/C=C\C(=O)O` [CDA, cis-2-decenoic acid], the “growth in the tube” value (planktonic S. aureus; 400 ppm CDA, planktonic S. aureus) was “visible growth”, the bacteriostatic or bactericidal (planktonic S. aureus; 800 ppm CDA, 10 μL plated on TSA-L agar after 24 hours incubation) was “bacteriostatic, not bactericidal” and the MIC (planktonic S. aureus; Staphylococcus aureus, planktonic cells, qualitative, clear vs cloudy vials, read-out: minimum inhibitory concentration (MIC)) was 800 µg/mL (≈ 4.7 mM). The dispersion of biofilm [1] was “no observed dispersion”, the “log reduction in CFU” value [2] was “greater than 4 log” and the “Avg. Log CFU, K-Wire Testing” value ([3]; 400 ppm CDA + 5% DMSO) was 7.8 Log CFU. The “Avg. Log CFU, Well Testing” value ([3]; 400 ppm CDA + 5% DMSO) was 5.6 Log CFU, the “Reduction (log CFU), K-Wire Testing” value ([3]; 400 ppm CDA + 5% DMSO) was 1.6 and the “Reduction (log CFU), Well Testing” value ([3]; 400 ppm CDA + 5% DMSO) was 0.6. For the same compound, the “concentration that inhibited biofilm formation” value (MRSA) was 125 ppm, the “concentration that inhibited the growth of MRSA” value (MRSA) was ≥ 500 ppm and the “lowest concentration able to disperse biofilms” value (biofilms) was “about 2.5 nM”. The “effect on established biofilms” value [4] was “disperse established biofilms”.

In the case of `Cc1nnc(SCC2=C(C(=O)O)N3C(=O)[C@@H](NC(=O)Cn4cnnn4)[C@H]3SC2)s1` [Cef, cefazolin], the “log reduction of bacteria in the wells” value [5] is reported as 7.8 log, the “log reduction of bacteria on the medical device (K-wires)” value (shortened to “log reduction of bacteria … (K-wires)”) [5] is reported as 5.9 log and the “Avg. Log CFU, K-Wire Testing” value ([3]; 10 ppm cefazolin) is reported as 8.5 Log CFU. The “Avg. Log CFU, Well Testing” value ([3]; 10 ppm cefazolin) was 5.4 Log CFU, the “Reduction (log CFU), K-Wire Testing” value ([3]; 10 ppm cefazolin) was 0.9 and the “Reduction (log CFU), Well Testing” value ([3]; 10 ppm cefazolin) was 0.8.

For `CCCCCCCC/C=C\CCCCCCCC(=O)O` [Oleic acid, cis-9-octadecanoic acid], the “effect on biofilm formation” value (Staphylococcus aureus) is given as “repress biofilm formation”.

For `CC(C)CCCCCCC/C=C\C(=O)O` [cis-11-methyl-2-dodecenoic acid], the “effect on cell flocs” value (Xanthomonas campestris) is given as “disaggregate cell flocs”.

In the case of `CN[C@H](CC(C)C)C(=O)N[C@H]1C(=O)N[C@@H](CC(N)=O)C(=O)N[C@H]2C(=O)N[C@H]3C(=O)N[C@H](C(=O)N[C@H](C(=O)O)c4cc(O)cc(O)c4-c4cc3ccc4O)[C@H](O)c3ccc(c(Cl)c3)Oc3cc2cc(c3O[C@@H]2O[C@H](CO)[C@@H](O)[C@H](O)[C@H]2O[C@H]2C[C@](C)(N)[C@H](O)[C@H](C)O2)Oc2ccc(cc2Cl)[C@H]1O` [vancomycin], the “log reduction of bacteria in the wells” value [5] is reported as 5.3 log and the “log reduction of bacteria … (K-wires)” value [5] is reported as 4.7 log.

For gentamicin, the “response of mature biofilms to gentamicin doses” value [6] was “resistant”, the “log reduction of bacteria in the wells” value [5] was 6.3 log and the “log reduction of bacteria … (K-wires)” value [5] was 4.9 log.
